From patent publication US20100055168A1, “CATIONIC LIPIDS AND USES THEREOF” (ABBOTT LABORATORIES, priority 2008, published 2010)

System: β-galactosidase in tumor sections
Test: IHC analysis of β-galactosidase staining in intraliver tumor sections after i.v. dosing of Lipid-Based Particles
Type: in vivo, Scid female mice
Parameters: key: −: there was no staining, a small area of weak staining, or disperse strong single cell staining; ±: there was 5% of the section with weak staining or one patch of strong staining; +: there was 15% of the section with strong staining; ++: there was ˜50% of the section with strong straining; +++: there was 80% of the section with strong straining; ++++: the whole section had strong staining
Details: intraliver tumor model, Scid mice, tail vein (i.v) injection
Procedure: The animal studies were carried out in accordance with internal Institutional Animal Care and Use Committee (IACUC) guidelines at Abbott Laboratories. Scid female mice at 6 to 8 weeks of age were obtained from Charles River Laboratory and used for […] tumor models. Mouse livers were exposed by vertical incision on mouse abdomens and the tumor cells were directly injected into the livers. The incision was closed by suture and wound clips. All cell lines used for creating xenograft tumors were subjected to the IMPACT profile I test (18 agents) at the University of Missouri Research Animal Diagnostic and Investigative Laboratory, and all cell lines were found negative for the 18 infectious agents tested. Tumor cells were suspended in a 1:1 mixture of S-MEM (Invitrogen, Carlsbad, Calif.) and matrigel (BD Bioscience, San Jose, Calif.) and inoculated at 1×10E6 cells per animal. Treatments were started 3 4 weeks after tumor inoculation. Formulated or unformulated siRNAs were administrated via tail vein (i.v) injection. IHC was carried out as previously described [Li, L., et al., Evaluating hypoxia-inducible factor-1alpha as a cancer therapeutic target via inducible RNA interference in vivo. Cancer Res, 2005. 65(16): p. 7249-58]. Briefly, tumors were excised, cut into pieces of less than 3 mm in thickness and immediately fixed in buffered formalin solution with neutral pH (Sigma, St. Louis, Mo.). The formalin-fixed and paraffin-embedded tumor sections were then used for staining. The mouse anti-β-galactosidase mAb (Promega, Madison, Wis.) was used to detect β-galactosidase in tumor sections. […] IHC images were acquired using the Nikon TE2000 inverted microscope. The β-galactosidase staining was evaluated by 2 people independently based on the scoring system listed below. The average of the score was calculated for each tumor.

Measured: In vivo Response (β-galactosidase IHC staining score)

C[C@H]1c2cccc(O)c2C(=O)C2=C(O)[C@]3(O)C(=O)C(C(N)=O)=C(O)[C@@H](N(C)C)[C@@H]3[C@@H](O)[C@@H]21 [Doxycycline]
+++: column 1 (individual tumor, head not explained) | column 2 (individual tumor, head not explained) | column 3 (individual tumor, head not explained) | column 4 (individual tumor, head not explained) | column 5 (individual tumor, head not explained) | column 6 (individual tumor, head not explained)
